Columns and labels:
corn = test: Test A postemergence; format: in vivo, Zea mays; conditions: 0 to 100 scale, 0 no effect, 100 complete control
Outline: (§1)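 Injury scores run from 0, no effect, to 100, complete control, judged by eye against untreated plants roughly 10 days after treatment. Chemicals carried a surfactant in a non-phytotoxic solvent and went onto loam–sand soil preemergence or onto one- to two-leaf seedlings postemergence.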

ragweed [1] = test: Test A postemergence; format: in vivo, Ambrosia elatior; conditions: 0 to 100 scale, 0 no effect, 100 complete control
Outline: as §1

barnyardgrass [2] = test: Test A postemergence; format: in vivo, Echinochloa crus-galli; conditions: 0 to 100 scale, 0 no effect, 100 complete control
Outline: as §1

barnyardgrass [3] = test: Test A preemergence; format: in vivo, Echinochloa crus-galli; conditions: for Plant response rating, Barnyardgrass: 31 g ai/ha, 0 to 100 scale where 0 is no effect and 100 is complete control, visual, approximately 10 days; for Barnyardgrass plant response rating (0 to 100 scale, 0 is no effect, 100 is complete control): 125 g ai/ha
Outline: as §1

ragweed [4] = test: Test A preemergence; format: in vivo, Ambrosia elatior; conditions: for Plant response rating, Ragweed: 31 g ai/ha, 0 to 100 scale where 0 is no effect and 100 is complete control, visual, approximately 10 days; for Ragweed plant response rating (0 to 100 scale): 125 g ai/ha
Outline: as §1

giant foxtail [5] = test: Test A preemergence; format: in vivo, Setaria faberii; conditions: for Plant response rating, Foxtail, Giant: 31 g ai/ha, 0 to 100 scale where 0 is no effect and 100 is complete control, visual, approximately 10 days; for Foxtail, Giant plant response rating (0 to 100 scale): 125 g ai/ha
Outline: as §1

barnyardgrass [6] = test: Test B flooded paddy test; format: in vivo, Echinochloa crus-galli; conditions: Flood, 250 g ai/ha; 0 to 100 scale where 0 is no effect and 100 is complete control
Outline: (§2)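 Visual ratings on a 0 to 100 scale, where 100 means complete control, compared treated plants with controls after 13 to 15 days in a greenhouse. Treatment went into paddy water 3 cm deep over the soil, applied to plants at the 2-leaf stage.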

kochia [7] = test: Test A preemergence; format: in vivo, Kochia scoparia; conditions: for Plant response rating, Kochia: 31 g ai/ha, 0 to 100 scale where 0 is no effect and 100 is complete control, visual, approximately 10 days; for Kochia plant response rating (0 to 100 scale): 125 g ai/ha
Outline: as §1

giant foxtail [8] = test: Test A postemergence; format: in vivo, Setaria faberii; conditions: 0 to 100 scale, 0 no effect, 100 complete control
Outline: as §1

rice = test: Test B flooded paddy test; format: in vivo, Oryza sativa; conditions: Flood, 250 g ai/ha; 0 to 100 scale where 0 is no effect and 100 is complete control
Outline: as §2

Italian ryegrass [9] = test: Test A postemergence; format: in vivo, Lolium multiflorum; conditions: 0 to 100 scale, 0 no effect, 100 complete control
Outline: as §1

wheat = test: Test A postemergence; format: in vivo, Triticum aestivum; conditions: 0 to 100 scale, 0 no effect, 100 complete control
Outline: as §1

galium = test: Test A postemergence; format: in vivo, Galium aparine; conditions: 0 to 100 scale, 0 no effect, 100 complete control
Outline: as §1

pigweed [10] = test: Test A postemergence; format: in vivo, Amaranthus retroflexus; conditions: 0 to 100 scale, 0 no effect, 100 complete control
Outline: as §1

Heteranthera limosa = test: Test B flooded paddy test; format: in vivo; conditions: Flood, 250 g ai/ha; 0 to 100 scale where 0 is no effect and 100 is complete control
Outline: as §2

pigweed [11] = test: Test A preemergence; format: in vivo, Amaranthus retroflexus; conditions: for Plant response rating, Pigweed: 31 g ai/ha, 0 to 100 scale where 0 is no effect and 100 is complete control, visual, approximately 10 days; for Pigweed plant response rating (0 to 100 scale): 125 g ai/ha
Outline: as §1

blackgrass = test: Test A postemergence; format: in vivo, Alopecurus myosuroides; conditions: 0 to 100 scale, 0 no effect, 100 complete control
Outline: as §1

kochia [12] = test: Test A postemergence; format: in vivo, Kochia scoparia; conditions: 0 to 100 scale, 0 no effect, 100 complete control
Outline: as §1

Italian ryegrass [13] = test: Test A preemergence; format: in vivo, Lolium multiflorum; conditions: for Plant response rating, Ryegrass, Italian: 31 g ai/ha, 0 to 100 scale where 0 is no effect and 100 is complete control, visual, approximately 10 days; for Ryegrass, Italian plant response rating (0 to 100 scale): 125 g ai/ha
Outline: as §1

sedge, umbrella = test: Test B flooded paddy test; format: in vivo, Cyperus difformis; conditions: Flood, 250 g ai/ha; 0 to 100 scale where 0 is no effect and 100 is complete control
Outline: as §2

| SMILES | Plant response rating, Corn (corn; 31 g ai/ha) | Plant response rating, Corn (corn; 125 g ai/ha) | Plant response rating, Ragweed (ragweed [1]; 31 g ai/ha) | Plant response rating, Ragweed (ragweed [1]; 125 g ai/ha) | Plant response rating, Barnyardgrass (barnyardgrass [2]; 31 g ai/ha) | Plant response rating, Barnyardgrass (barnyardgrass [2]; 125 g ai/ha) | Plant response rating, Barnyardgrass (barnyardgrass [3]) | Barnyardgrass plant response rating (0 to 100 scale, 0 is no effect, 100 is complete control) (barnyardgrass [3]) | Plant response rating, Ragweed (ragweed [4]) | Ragweed plant response rating (0 to 100 scale) (ragweed [4]) | Plant response rating, Foxtail, Giant (giant foxtail [5]) | Foxtail, Giant plant response rating (0 to 100 scale) (giant foxtail [5]) | Plant response rating, Barnyardgrass (barnyardgrass [6]) | Plant response rating, Kochia (kochia [7]) | Kochia plant response rating (0 to 100 scale) (kochia [7]) | Plant response rating, Foxtail, Giant (giant foxtail [8]; 31 g ai/ha) | Plant response rating, Foxtail, Giant (giant foxtail [8]; 125 g ai/ha) | Plant response rating, Rice (rice) | Plant response rating, Ryegrass, Italian (Italian ryegrass [9]; 31 g ai/ha) | Plant response rating, Ryegrass, Italian (Italian ryegrass [9]; 125 g ai/ha) | other results |
| --- | --- | --- | --- | --- | --- | --- | --- | --- | --- | --- | --- | --- | --- | --- | --- | --- | --- | --- | --- | --- | --- |
| Fc1cnc(Oc2ccccc2-n2cc(SC(F)(F)F)cn2)nc1 [Compound 247] | 0 | 20 | 0 | 0 | 0 | 20 | 0 | 70 | 0 | 0 | 0 | 100 | 0 | 0 | 60 | 0 | 10 | 0 | 0 | 0 | Plant response rating, Wheat (wheat; 31 g ai/ha): 0; Plant response rating, Wheat (wheat; 125 g ai/ha): 20; Plant response rating, Galium (galium; 31 g ai/ha): 10; Plant response rating, Galium (galium; 125 g ai/ha): 30; Plant response rating, Pigweed (pigweed [10]; 31 g ai/ha): 10; Plant response rating, Pigweed (pigweed [10]; 125 g ai/ha): 20; Plant response rating, Ducksalad (Heteranthera limosa): 65; Plant response rating, Pigweed (pigweed [11]): 0; Pigweed plant response rating (0 to 100 scale) (pigweed [11]): 80; Plant response rating, Blackgrass (blackgrass; 31 g ai/ha): 0; Plant response rating, Blackgrass (blackgrass; 125 g ai/ha): 40; Plant response rating, Kochia (kochia [12]; 31 g ai/ha): 20; Plant response rating, Kochia (kochia [12]; 125 g ai/ha): 40; Plant response rating, Ryegrass, Italian (Italian ryegrass [13]): 0; Ryegrass, Italian plant response rating (0 to 100 scale) (Italian ryegrass [13]): 0; Plant response rating, Sedge, Umbrella (sedge, umbrella): 50 |
| N#Cc1cnn(-c2c(CF)cccc2Oc2ncc(Br)cn2)c1 [Compound 243] | 0 | 0 | 20 | 20 | 0 | 0 | 0 | 30 | 0 | 20 | 0 | 100 | 0 | 0 | 90 | 0 | 10 | 0 | 0 | 0 | Plant response rating, Wheat (wheat; 31 g ai/ha): 0; Plant response rating, Wheat (wheat; 125 g ai/ha): 20; Plant response rating, Galium (galium; 31 g ai/ha): 0; Plant response rating, Galium (galium; 125 g ai/ha): 10; Plant response rating, Pigweed (pigweed [10]; 31 g ai/ha): 10; Plant response rating, Pigweed (pigweed [10]; 125 g ai/ha): 20; Plant response rating, Ducksalad (Heteranthera limosa): 30; Plant response rating, Pigweed (pigweed [11]): 0; Pigweed plant response rating (0 to 100 scale) (pigweed [11]): 80; Plant response rating, Blackgrass (blackgrass; 31 g ai/ha): 0; Plant response rating, Blackgrass (blackgrass; 125 g ai/ha): 30; Plant response rating, Kochia (kochia [12]; 31 g ai/ha): 20; Plant response rating, Kochia (kochia [12]; 125 g ai/ha): 30; Plant response rating, Ryegrass, Italian (Italian ryegrass [13]): 0; Ryegrass, Italian plant response rating (0 to 100 scale) (Italian ryegrass [13]): 0; Plant response rating, Sedge, Umbrella (sedge, umbrella): 0 |
| O=Cc1cn(-c2ccccc2Oc2ncc(Cl)cn2)nn1 [Compound 272] | 0 | 0 | 0 | 0 | 0 | 0 | 0 | 0 | 0 | 0 | 0 | 0 | 0 | 0 | 0 | 0 | 0 | 0 | 0 | 0 | Plant response rating, Wheat (wheat; 31 g ai/ha): 0; Plant response rating, Wheat (wheat; 125 g ai/ha): 0; Plant response rating, Galium (galium; 31 g ai/ha): 0; Plant response rating, Galium (galium; 125 g ai/ha): 0; Plant response rating, Pigweed (pigweed [10]; 31 g ai/ha): 0; Plant response rating, Pigweed (pigweed [10]; 125 g ai/ha): 0; Plant response rating, Ducksalad (Heteranthera limosa): 0; Plant response rating, Pigweed (pigweed [11]): 0; Pigweed plant response rating (0 to 100 scale) (pigweed [11]): 0; Plant response rating, Blackgrass (blackgrass; 31 g ai/ha): 0; Plant response rating, Blackgrass (blackgrass; 125 g ai/ha): 0; Plant response rating, Kochia (kochia [12]; 31 g ai/ha): 0; Plant response rating, Kochia (kochia [12]; 125 g ai/ha): 0; Plant response rating, Ryegrass, Italian (Italian ryegrass [13]): 0; Ryegrass, Italian plant response rating (0 to 100 scale) (Italian ryegrass [13]): 0; Plant response rating, Sedge, Umbrella (sedge, umbrella): 0 |

— patent US9695155B2, “Herbicidal substituted pyrimidinyloxy benzene compounds” (E. I. DU PONT DE NEMOURS AND COMPANY, priority 2013, dated 2017)
